Structures are written as SMILES. pIC50: −log10 of the molar value.

The values that follow come from patent US20250129041A1, “MOLECULAR GLUE AND USES THEREOF” (ASTROGEN, INC., priority 2023, published 2025).

Data set [1] in a line: Single dose toxicity study. The data set is classed as in vivo. The following applies: rats. How it is done: The toxicity of AST-DT-218 at a single dose was evaluated. First, healthy adult male and female rats were prepared and then fasted for 12 hours before the experiment. Solutions were prepared for each dose group (0 mg/kg, 500 mg/kg, 1,000 mg/kg, and 2,000 mg/kg), and the final solution volume was set at 40 mL/kg.
For […] to 15 days after administration, clinical symptoms (e.g., colored stool, hairloss, etc.), changes in weight, changes in food consumption, and changes in organ weight were observed, and ophthalmic examinations were performed and autopsies were performed.

In data set [2] the test system is Hep3B. In words: Dose response curve, cell survival, 48 hours, Hep3B. The class given is cell-based. The following applies: Homo sapiens, Hepatocellular Carcinoma, read-out: IC50 of AST-DT-218, Hep3B. How it is done:
(§1) A DRC was created to determine whether AST-DT-218 is effective in killing various cancer cells. First, hepatoma cell lines (Huh7 and Hep3B), non-small cell lung cancer cell lines (NCI-H460 and NCI-H1299), pancreatic cancer cell lines (PANC-1 and Mia-Paca-2), rectal cancer cell lines (HT29 and HCT116), a gastric adenocarcinoma cell line (AGS), a malignant melanoma cell line (A375), and an adenocarcinoma cell line (MDA-MB-231) were prepared. Each cell line was cultured in a flask, and the cells which reached the logarithmic growth phase were prepared, washed with PBS, harvested with trypsin, centrifuged to adjust the cell density, and then resuspended in an appropriate culture medium, and plated into 96-well plates. After culturing until the cells attached to the plates and stabilized, AST-DT-218 and controls (lenalidomide and pomalidomide) were prepared and diluted to various concentrations (10-point by diluting by half from the highest concentration of 50 μM). […] After completion of the culture, cell survival was assessed using a cell counting method through cell nuclear staining. Data were collected by measuring cell survival at each concentration, and then DRC was created (see FIGS. 5 to 12) and IC50 values were calculated (see Table 8).

The next data set deals with NCI-H1299. In words: Dose response curve, cell survival, 48 hours, NCI-H1299. The class given is cell-based. The following applies: Homo sapiens, Non-Small Cell Lung Cancer, read-out: IC50 of AST-DT-218, NCI-H1299. The procedure: as §1
A further data set relates to HT29. In words: Dose response curve, cell survival, 48 hours, HT29. The class given is cell-based. The following applies: Homo sapiens, HT-29, Colorectal Carcinoma, read-out: IC50 of AST-DT-218, HT29. The procedure: as §1
The subject of data set [3] is Hep3B. As to the kind of experiment: HCC cell survival by cell nuclear staining, 24 hours, Hep3B. The class given is cell-based. To be noted: Homo sapiens. How it is done: (§2) An indication expansion experiment was performed to evaluate the potential of AST-DT-218 for treating hepatocellular carcinoma (HCC). First, HCC cell lines (Huh7, Hep3B, SNU449, and SNU475) were prepared, and AST-DT-218 and Sorafenib were at the highest concentration of 50 μM, serially diluted by half starting therefrom, thereby preparing 10 concentrations (50 μM, 25 μM, 12.5 μM, etc.). HCC cell lines (Huh7, Hep3B, SNU449, SNU475) were seeded into 96-well plates, in which each well was treated with AST-DT-218 and Sorafenib solutions, and the cells were cultured in an incubator for 24 hours. Then, the cell survival at each concentration was evaluated by measuring the cell count using cell nuclear staining, and a concentration-response curve of cell survival was created based on the data, and the IC50 value was derived.

A further data set deals with Mia-Paca-2. In words: Dose response curve, cell survival, 48 hours, Mia-Paca-2. The class given is cell-based. The following applies: Homo sapiens, Pancreatic Carcinoma, read-out: IC50 of AST-DT-218, Mia-Paca-2. How it is done: as §1
The subject of the next data set is SNU475. In words: HCC cell survival by cell nuclear staining, 24 hours, SNU475. The class given is cell-based. The following applies: Homo sapiens, SNU-475. How it is done:
as §2

A further data set relates to NCI-H460. As to the kind of experiment: Dose response curve, cell survival, 48 hours, NCI-H460. To be noted: Homo sapiens, Non-Small Cell Lung Cancer, read-out: IC50 of AST-DT-218, NCI-H460. The data set is classed as cell-based. How it is done: as §1
The subject of a further data set is TA98 strain. How it is done: (§3) First, TA98 and TA 100 strains, which detect frameshift mutations and point mutations, respectively, were cultured. Then, AST-DT-218 was dissolved in a solvent and diluted to various concentrations (20.5 μg/mL, 61.7 μg/mL 185.1 μg/mL, […], 1666.6 μg/mL, and 5000 μg/mL) to prepare an […] (a metabolic activation system; concentration: 30%) including liver enzyme extracts and supplements. Into a histidine-deficient medium at different concentrations of AST-DT-218, (i) the TA98 strain was inoculated without the […] (TA98−S9), (ii) the TA98 strain was inoculated by mixing it with the […] (TA98+S9), (iii) the TA100 strain was inoculated without the […] (TA100−S9), and (iv) the TA100 strain was inoculated by mixing it with the S9 mixture (TA100+S9). As a solvent control, which is a negative control, only the solvent was inoculated into a histidine-deficient medium, and only a pure solvent was used in the absence of any compound. […] After culturing for 48 to 72 hours in each medium, the number of colonies generated was counted to calculate the mutation rate, and the mutagenic effect was compared depending on the presence or absence of the S9 mixture to analyze the effect on metabolic activation.

Another data set concerns TA100 strain. How it is done: as §3
The target of a further data set is hERG channel (Homo sapiens (Human), UniProt Q12809). In words: hERG-related cardiotoxicity test using automated patch clamp. The data set is classed as cell-based. To be noted: hERG channel-expressing CHO cell line. The procedure: In order to evaluate the inhibitory effect of AST-DT-218 on the hERG channel and determine its potential to induce cardiotoxicity, a hERG-related cardiotoxicity test using an automated patch clamp was performed. First, a hERG channel-expressing cell line (CHO) was cultured, and AST-DT-218 was dissolved in a solvent (DMSO) and diluted to a concentration (1 μM). Cells were mounted on a patch-clamp device, and the electrical activity of hERG channels was recorded by measuring voltage-dependent currents. The inhibitory effect was calculated as the current reduction ratio, and the IC50 value was derived by constructing a concentration-response curve.
Sequence of hERG channel (Q12809 whole entry): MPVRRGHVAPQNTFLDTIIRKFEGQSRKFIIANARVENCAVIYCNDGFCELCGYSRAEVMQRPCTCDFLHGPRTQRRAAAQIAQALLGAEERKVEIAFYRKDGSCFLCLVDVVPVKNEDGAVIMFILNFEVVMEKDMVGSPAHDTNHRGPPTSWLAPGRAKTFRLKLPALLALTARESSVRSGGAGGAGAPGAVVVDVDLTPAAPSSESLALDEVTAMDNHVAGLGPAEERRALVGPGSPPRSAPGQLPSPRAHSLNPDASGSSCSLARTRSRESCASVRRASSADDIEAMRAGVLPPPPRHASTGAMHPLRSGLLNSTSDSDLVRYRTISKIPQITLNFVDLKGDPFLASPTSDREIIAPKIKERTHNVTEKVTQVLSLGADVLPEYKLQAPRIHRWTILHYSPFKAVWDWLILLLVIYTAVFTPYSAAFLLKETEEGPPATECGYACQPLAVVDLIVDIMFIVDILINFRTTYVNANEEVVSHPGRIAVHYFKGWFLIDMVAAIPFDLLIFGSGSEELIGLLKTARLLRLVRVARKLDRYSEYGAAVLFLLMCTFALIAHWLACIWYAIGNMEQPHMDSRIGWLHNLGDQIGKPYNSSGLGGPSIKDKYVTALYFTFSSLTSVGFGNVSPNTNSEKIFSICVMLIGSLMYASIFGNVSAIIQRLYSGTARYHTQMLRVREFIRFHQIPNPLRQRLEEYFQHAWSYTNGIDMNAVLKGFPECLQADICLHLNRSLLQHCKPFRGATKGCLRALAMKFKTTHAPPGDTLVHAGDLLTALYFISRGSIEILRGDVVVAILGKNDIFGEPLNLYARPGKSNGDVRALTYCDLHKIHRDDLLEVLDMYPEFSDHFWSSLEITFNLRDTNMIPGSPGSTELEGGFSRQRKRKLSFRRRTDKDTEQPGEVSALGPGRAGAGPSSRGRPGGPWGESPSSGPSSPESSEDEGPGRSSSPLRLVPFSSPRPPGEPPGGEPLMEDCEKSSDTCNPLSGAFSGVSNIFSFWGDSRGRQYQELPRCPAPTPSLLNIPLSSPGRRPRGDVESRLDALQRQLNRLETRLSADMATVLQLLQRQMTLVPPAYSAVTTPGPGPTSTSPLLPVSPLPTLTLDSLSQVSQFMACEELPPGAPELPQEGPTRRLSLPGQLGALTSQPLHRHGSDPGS

In a further data set the test system is Huh7. In words: HCC cell survival by cell nuclear staining, 24 hours, Huh7. The data set is classed as cell-based. The following applies: Homo sapiens, Huh-7. How it is done:
as §2

In the case of `COc1ccc([C@@H](C)Nc2cccc3c2C(=O)N(C2CCC(=O)NC2=O)C3=O)cc1` (stereo partly drawn) [AST-DT-218, 2-(2,6-dioxopiperidin-3-yl)-4-(((R)-1-(4-methoxyphenyl)ethyl)amino)isoindoline-1,3-dione], the “changes in clinical symptoms, body weight, food consumption, ophthalmological examination, organ weights, and autopsies” value in data set [1] (single oral dose up to 2,000 mg/kg, 15 days observation) is listed as “no toxicologically significant changes”. The “Clinical Signs” value in data set [1] (single p.o. dose 500 mg/kg, all animals, day 2) is “colored stool”; in data set [1] (single p.o. dose 1,000 mg/kg, all animals, day 2) it was “colored stool”; in data set [1] (single p.o. dose 2,000 mg/kg, all animals, day 2), “colored stool”; in data set [1] (single p.o. dose 2,000 mg/kg, animal #19, day 14-15), “loss of fur”; in [1] (single p.o. dose 2,000 mg/kg, animal #40, day 3) it was “colored stool”; in [1] (single p.o. dose 2,000 mg/kg, animals #18 to #20, day 3), “colored stool”. The pIC50 with Hep3B [2] was 6.05; with NCI-H1299, 6.41; in the data set on HT29, 6.47; in the data set on Hep3B [3], 6.42; with Mia-Paca-2, 6.53; in the data set with SNU475 it was 5.84. Also, the pIC50 is 6.62 in the data set on NCI-H460 and 6.12 in the data set with Huh7. In addition, the “number of mutant colonies” value in the data set on TA98 strain (TA98, regardless of presence or absence of S9 mixture) was “no significant increase”; with TA100 strain (TA100, regardless of presence or absence of S9 mixture), “no significant increase”. For the same molecule, the “Mutagenic Data Points w/ S9” value in the data set with TA98 strain (TA98, test conc. 20.5-5,000 μg/mL, with S9) is reported as “No”; with TA100 strain (TA100, test conc. 20.5-5,000 μg/mL, with S9), “No”. For the same molecule, the “Mutagenic Data Points w/o S9” value with TA98 strain (TA98, test conc. 20.5-5,000 μg/mL, without S9) was “No”; with TA100 strain (TA100, test conc. 20.5-5,000 μg/mL, without S9) it was “No”. Moreover, the “possibility of causing cardiotoxicity (hERG patch clamp)” value on hERG channel is on record as “low possibility of causing cardiotoxicity”.
